pIC50, pKi: −log10 of the molar value.

Chain of Voltage-gated inwardly rectifying potassium channel KCNH2 (Q12809 whole entry): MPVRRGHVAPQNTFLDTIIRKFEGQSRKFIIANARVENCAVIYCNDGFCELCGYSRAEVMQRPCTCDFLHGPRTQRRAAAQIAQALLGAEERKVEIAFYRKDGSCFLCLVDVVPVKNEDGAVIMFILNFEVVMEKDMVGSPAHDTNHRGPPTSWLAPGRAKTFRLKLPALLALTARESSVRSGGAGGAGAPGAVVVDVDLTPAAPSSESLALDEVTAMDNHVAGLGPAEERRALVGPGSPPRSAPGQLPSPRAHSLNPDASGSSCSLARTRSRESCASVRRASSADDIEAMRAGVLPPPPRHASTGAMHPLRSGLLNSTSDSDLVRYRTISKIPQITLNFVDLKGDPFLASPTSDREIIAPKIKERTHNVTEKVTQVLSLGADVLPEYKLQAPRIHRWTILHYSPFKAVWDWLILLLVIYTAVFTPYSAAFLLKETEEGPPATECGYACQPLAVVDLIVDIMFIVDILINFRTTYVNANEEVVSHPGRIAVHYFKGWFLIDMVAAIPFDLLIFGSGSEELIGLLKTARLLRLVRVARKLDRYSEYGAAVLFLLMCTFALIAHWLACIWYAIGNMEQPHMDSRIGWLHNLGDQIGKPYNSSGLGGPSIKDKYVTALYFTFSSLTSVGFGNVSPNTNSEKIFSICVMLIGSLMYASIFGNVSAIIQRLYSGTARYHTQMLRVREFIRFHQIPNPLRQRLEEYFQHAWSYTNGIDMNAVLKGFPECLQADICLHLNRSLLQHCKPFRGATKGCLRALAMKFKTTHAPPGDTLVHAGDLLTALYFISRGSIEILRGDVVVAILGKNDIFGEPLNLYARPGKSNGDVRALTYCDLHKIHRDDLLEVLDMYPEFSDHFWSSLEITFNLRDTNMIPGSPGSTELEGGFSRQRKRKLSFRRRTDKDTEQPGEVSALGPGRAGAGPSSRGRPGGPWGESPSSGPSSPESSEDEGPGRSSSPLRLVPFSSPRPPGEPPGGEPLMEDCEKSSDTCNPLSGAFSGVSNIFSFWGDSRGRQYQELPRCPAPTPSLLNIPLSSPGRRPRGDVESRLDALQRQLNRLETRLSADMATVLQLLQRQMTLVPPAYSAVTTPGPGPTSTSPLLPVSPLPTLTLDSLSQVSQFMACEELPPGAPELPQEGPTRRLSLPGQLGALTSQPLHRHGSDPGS
T1 sequence (P37288 whole entry): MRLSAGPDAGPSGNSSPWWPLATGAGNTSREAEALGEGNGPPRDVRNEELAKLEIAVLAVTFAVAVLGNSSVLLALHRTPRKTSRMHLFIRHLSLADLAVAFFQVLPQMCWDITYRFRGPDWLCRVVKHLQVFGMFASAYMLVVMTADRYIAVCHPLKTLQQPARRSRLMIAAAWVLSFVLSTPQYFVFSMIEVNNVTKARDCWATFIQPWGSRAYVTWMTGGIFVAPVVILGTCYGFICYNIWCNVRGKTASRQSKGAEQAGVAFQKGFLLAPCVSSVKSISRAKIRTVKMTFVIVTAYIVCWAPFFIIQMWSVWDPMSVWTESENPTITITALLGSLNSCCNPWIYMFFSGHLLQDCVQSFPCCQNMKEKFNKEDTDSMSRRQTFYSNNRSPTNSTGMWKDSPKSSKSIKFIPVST

Test system in one data set: not listed separately
Nature of the data set: Apparent permeability of compound across apical to basal side in vinblastine treated human Caco-2 cells at 1 to 10 uM incubated for 15 to 60 mins by HPLC analysis.
Conditions: not given
As usually defined, the Papp A→B is how fast a substance crosses the layer from the apical side. On to `O=C(N[C@@H]1Cc2cc(Cl)ccc2-n2c(nnc2[C@H]2CC[C@H](Oc3ccccn3)CC2)C1)C(F)(F)F`, for which the Papp A→B at 10 µM amounted to 110 nm/s.

Take `COCC1Cc2cc(Cl)ccc2-n2c(nnc2[C@H]2CC[C@H](Oc3ccccn3)CC2)C1` (some centres not stated): the Papp A→B at 10 µM turned out to be 300 nm/s.

As to `CC(C)(O)C(=O)N[C@@H]1Cc2cc(Cl)ccc2-n2c(nnc2[C@H]2CC[C@H](Oc3ccccn3)CC2)C1`, the Papp A→B at 10 µM worked out at 18 nm/s.

`O[C@@H]1Cc2cc(Cl)ccc2-n2c(nnc2[C@H]2CC[C@H](Oc3ccccn3)CC2)C1`: the Papp A→B at 10 µM was found to be 230 nm/s.

For the compound `FC(F)(F)[C@H]1CC[C@H](c2nnc3n2-c2ccc(Cl)cc2CC2(C3)OCCO2)CC1`, the Papp A→B at 10 µM came out at 390 nm/s.

Consider `N#CCC(=O)N[C@@H]1Cc2cc(Cl)ccc2-n2c(nnc2[C@H]2CC[C@H](Oc3ccccn3)CC2)C1`, for which the Papp A→B at 10 µM was determined as 5 nm/s.

Turning to `Clc1ccc2c(c1)CC1(Cc3nnc([C@H]4CC[C@H](N5CCOCC5)CC4)n3-2)OCCO1`, the Papp A→B at 10 µM was determined as 45 nm/s.

In the case of `O=C(N[C@@H]1Cc2cc(Cl)ccc2-n2c(nnc2[C@H]2CC[C@H](Oc3ccccn3)CC2)C1)C1CC1`, the Papp A→B at 10 µM is 43 nm/s.

Consider `CN1Cc2cc(Cl)ccc2-n2c(nnc2[C@H]2CC[C@H](Oc3ccccn3)CC2)C1` [BALOVAPTAN], for which the Papp A→B at 10 µM was 510 nm/s.

In the case of `CO[C@H]1Cc2cc(Cl)ccc2-n2c(nnc2[C@H]2CC[C@H](Oc3ccccn3)CC2)C1`, the Papp A→B at 10 µM stood at 400 nm/s.

Test system in a further data set: not listed separately
As to the kind of experiment: Efflux ratio of apparent permeability across basolateral to apical side over apical to basolateral side in vinblastine treated human Caco-2 cells at 1 to 10 uM incubated for 15 to 60 hrs by HPLC analysis.
Conditions: not given
As a reminder, the efflux ratio is the permeability from basolateral to apical divided by that in the opposite direction, in the common usage. With `O=C(N[C@@H]1Cc2cc(Cl)ccc2-n2c(nnc2[C@H]2CC[C@H](Oc3ccccn3)CC2)C1)C(F)(F)F`, the efflux ratio at 10 µM was determined as 2.9.

On to `COCC1Cc2cc(Cl)ccc2-n2c(nnc2[C@H]2CC[C@H](Oc3ccccn3)CC2)C1` (some centres not stated), for which the efflux ratio at 10 µM was found to be 1.

`CC(C)(O)C(=O)N[C@@H]1Cc2cc(Cl)ccc2-n2c(nnc2[C@H]2CC[C@H](Oc3ccccn3)CC2)C1`: the efflux ratio at 10 µM was 37.

Consider `O[C@@H]1Cc2cc(Cl)ccc2-n2c(nnc2[C@H]2CC[C@H](Oc3ccccn3)CC2)C1`, for which the efflux ratio at 10 µM turned out to be 3.5.

Regarding `FC(F)(F)[C@H]1CC[C@H](c2nnc3n2-c2ccc(Cl)cc2CC2(C3)OCCO2)CC1`, the efflux ratio at 10 µM amounted to 1.

`N#CCC(=O)N[C@@H]1Cc2cc(Cl)ccc2-n2c(nnc2[C@H]2CC[C@H](Oc3ccccn3)CC2)C1`: the efflux ratio at 10 µM stood at 118.

Regarding `Clc1ccc2c(c1)CC1(Cc3nnc([C@H]4CC[C@H](N5CCOCC5)CC4)n3-2)OCCO1`, the efflux ratio at 10 µM was 15.

Regarding `O=C(N[C@@H]1Cc2cc(Cl)ccc2-n2c(nnc2[C@H]2CC[C@H](Oc3ccccn3)CC2)C1)C1CC1`, the efflux ratio at 10 µM amounted to 14.6.

Regarding `CO[C@H]1Cc2cc(Cl)ccc2-n2c(nnc2[C@H]2CC[C@H](Oc3ccccn3)CC2)C1`, the efflux ratio at 10 µM is 2.7.

A further data set has as its target T1, Vasopressin V1a receptor (Homo sapiens, UniProt P37288).
Assay: not given
Conditions: not given
Usually pKi stands for the Ki on a negative log10 scale, so that one unit is a factor of ten. Higher therefore signals a small Ki. Compound `COCC1Cc2cc(Cl)ccc2-n2c(nnc2[C@H]2CC[C@H](Oc3ccccn3)CC2)C1` (some centres not stated) had a pKi of 9.22.

`CO[C@H]1Cc2cc(Cl)ccc2-n2c(nnc2[C@H]2CC[C@H](Oc3ccccn3)CC2)C1` gave a pKi of 8.70.

In another data set the target is T1, Vasopressin V1a receptor.
Assay: not given
Conditions: not given
The source holds these as a separate data set.
By pIC50 is commonly meant −log10 of the IC50, conventionally taken in molar units. Higher therefore signals a low IC50. In turn, `COCC1Cc2cc(Cl)ccc2-n2c(nnc2[C@H]2CC[C@H](Oc3ccccn3)CC2)C1` (some centres not stated) showed a negative-log IC50 (pIC50) of 9.10.

Compound `CO[C@H]1Cc2cc(Cl)ccc2-n2c(nnc2[C@H]2CC[C@H](Oc3ccccn3)CC2)C1` gave a pIC50 of 9.22.

A further data set addresses Voltage-gated inwardly rectifying potassium channel KCNH2 (Homo sapiens, UniProt Q12809).
Assay: not given
Conditions: not given
In turn, `O[C@@H]1Cc2cc(Cl)ccc2-n2c(nnc2[C@H]2CC[C@H](Oc3ccccn3)CC2)C1` gave a pIC50 of less than 4.52.

The compound `FC(F)(F)[C@H]1CC[C@H](c2nnc3n2-c2ccc(Cl)cc2CC2(C3)OCCO2)CC1` had a pIC50 of less than 4.52.

Compound `Clc1ccc2c(c1)CC1(Cc3nnc([C@H]4CC[C@H](N5CCOCC5)CC4)n3-2)OCCO1` had a pIC50 of 5.46.

In turn, `CN1Cc2cc(Cl)ccc2-n2c(nnc2[C@H]2CC[C@H](Oc3ccccn3)CC2)C1` [BALOVAPTAN] gave a pIC50 of 4.68.

For `CO[C@H]1Cc2cc(Cl)ccc2-n2c(nnc2[C@H]2CC[C@H](Oc3ccccn3)CC2)C1`, the negative-log IC50 (pIC50) is 4.99.

Test system in the next data set: not given
Assay: not given
The following applies: human, microsomes, 1 µM.
For the compound `COCC1Cc2cc(Cl)ccc2-n2c(nnc2[C@H]2CC[C@H](Oc3ccccn3)CC2)C1` (some centres not stated), the CLH stood at 2.76 mL/h/kg.

On to `FC(F)(F)[C@H]1CC[C@H](c2nnc3n2-c2ccc(Cl)cc2CC2(C3)OCCO2)CC1`, for which the CLH stood at 0.012 mL/h/kg.

With `CN1Cc2cc(Cl)ccc2-n2c(nnc2[C@H]2CC[C@H](Oc3ccccn3)CC2)C1` [BALOVAPTAN], the CLH worked out at 51 µL/min/mg.

Test system in a further data set: not listed separately
As to the kind of experiment: in vitro. The following applies: human, microsomes.
What is called microsomal CLint is a measure of how fast metabolising enzymes remove a compound, apart from limits set by blood flow. Low values mean slow turnover, high ones rapid turnover. `O=C(N[C@@H]1Cc2cc(Cl)ccc2-n2c(nnc2[C@H]2CC[C@H](Oc3ccccn3)CC2)C1)C(F)(F)F` returned a microsomal CLint at 1 µM of 2 µL/min/mg.

In turn, `CC(C)(O)C(=O)N[C@@H]1Cc2cc(Cl)ccc2-n2c(nnc2[C@H]2CC[C@H](Oc3ccccn3)CC2)C1` gave a microsomal CLint at 1 µM of 1 µL/min/mg.

On to `N#CCC(=O)N[C@@H]1Cc2cc(Cl)ccc2-n2c(nnc2[C@H]2CC[C@H](Oc3ccccn3)CC2)C1`, for which the microsomal CLint at 1 µM came out at 13 µL/min/mg.

As for `O=C(N[C@@H]1Cc2cc(Cl)ccc2-n2c(nnc2[C@H]2CC[C@H](Oc3ccccn3)CC2)C1)C1CC1`, the intrinsic clearance (microsomal CLint) at 1 µM is 1 µL/min/mg.

Test system in another data set: not listed separately
Nature of the data set: in vitro. Conditions: Wistar, rat, microsomes.
`O=C(N[C@@H]1Cc2cc(Cl)ccc2-n2c(nnc2[C@H]2CC[C@H](Oc3ccccn3)CC2)C1)C(F)(F)F` yielded a microsomal CLint at 1 µM of 4 µL/min/mg.

In turn, `CC(C)(O)C(=O)N[C@@H]1Cc2cc(Cl)ccc2-n2c(nnc2[C@H]2CC[C@H](Oc3ccccn3)CC2)C1` came in with a microsomal CLint at 1 µM of 3 µL/min/mg.

`O[C@@H]1Cc2cc(Cl)ccc2-n2c(nnc2[C@H]2CC[C@H](Oc3ccccn3)CC2)C1` came in with a microsomal CLint at 1 µM of 56 µL/min/mg.

In turn, `FC(F)(F)[C@H]1CC[C@H](c2nnc3n2-c2ccc(Cl)cc2CC2(C3)OCCO2)CC1` gave a microsomal CLint at 1 µM of 16 µL/min/mg.

The compound `N#CCC(=O)N[C@@H]1Cc2cc(Cl)ccc2-n2c(nnc2[C@H]2CC[C@H](Oc3ccccn3)CC2)C1` had a microsomal CLint at 1 µM of 15 µL/min/mg.

Turning to `Clc1ccc2c(c1)CC1(Cc3nnc([C@H]4CC[C@H](N5CCOCC5)CC4)n3-2)OCCO1`, the microsomal CLint at 1 µM came to 6 µL/min/mg.

As to `O=C(N[C@@H]1Cc2cc(Cl)ccc2-n2c(nnc2[C@H]2CC[C@H](Oc3ccccn3)CC2)C1)C1CC1`, the microsomal CLint at 1 µM stood at 1 µL/min/mg.

For the compound `CN1Cc2cc(Cl)ccc2-n2c(nnc2[C@H]2CC[C@H](Oc3ccccn3)CC2)C1` [BALOVAPTAN], the microsomal CLint at 1 µM is 17 µL/min/mg.

Compound `CO[C@H]1Cc2cc(Cl)ccc2-n2c(nnc2[C@H]2CC[C@H](Oc3ccccn3)CC2)C1` gave an intrinsic clearance (microsomal CLint) at 1 µM of 33 µL/min/mg.

Test system in a further data set: not listed separately
Nature of the data set: in vitro. The following applies: NMRI, mouse, microsomes.
In the case of `COCC1Cc2cc(Cl)ccc2-n2c(nnc2[C@H]2CC[C@H](Oc3ccccn3)CC2)C1` (some centres not stated), the intrinsic clearance (microsomal CLint) at 1 µM stood at 126 µL/min/mg.

With `O[C@@H]1Cc2cc(Cl)ccc2-n2c(nnc2[C@H]2CC[C@H](Oc3ccccn3)CC2)C1`, the microsomal CLint at 1 µM amounted to 5 µL/min/mg.

Compound `FC(F)(F)[C@H]1CC[C@H](c2nnc3n2-c2ccc(Cl)cc2CC2(C3)OCCO2)CC1` had an intrinsic metabolic clearance (microsomal CLint) at 1 µM of 34 µL/min/mg.

As to `CN1Cc2cc(Cl)ccc2-n2c(nnc2[C@H]2CC[C@H](Oc3ccccn3)CC2)C1` [BALOVAPTAN], the microsomal CLint at 1 µM came to 22 µL/min/mg.

Test system in the next data set: not listed separately
As to the kind of experiment: in vitro. The following applies: CD-1, mouse, liver microsomes. (Liver microsomes are vesicles of endoplasmic reticulum, rich in cytochrome P450 enzymes.)
For the compound `O=C(N[C@@H]1Cc2cc(Cl)ccc2-n2c(nnc2[C@H]2CC[C@H](Oc3ccccn3)CC2)C1)C(F)(F)F`, the microsomal CLint at 1 µM is 18 µL/min/mg.

`CC(C)(O)C(=O)N[C@@H]1Cc2cc(Cl)ccc2-n2c(nnc2[C@H]2CC[C@H](Oc3ccccn3)CC2)C1` had a microsomal CLint at 1 µM of 16 µL/min/mg.

For `N#CCC(=O)N[C@@H]1Cc2cc(Cl)ccc2-n2c(nnc2[C@H]2CC[C@H](Oc3ccccn3)CC2)C1`, the microsomal CLint at 1 µM worked out at 19 µL/min/mg.

`Clc1ccc2c(c1)CC1(Cc3nnc([C@H]4CC[C@H](N5CCOCC5)CC4)n3-2)OCCO1` had a microsomal CLint at 1 µM of 7 µL/min/mg.

The compound `O=C(N[C@@H]1Cc2cc(Cl)ccc2-n2c(nnc2[C@H]2CC[C@H](Oc3ccccn3)CC2)C1)C1CC1` had a microsomal CLint at 1 µM of 22 µL/min/mg.

`CO[C@H]1Cc2cc(Cl)ccc2-n2c(nnc2[C@H]2CC[C@H](Oc3ccccn3)CC2)C1`: the microsomal CLint at 1 µM was 66 µL/min/mg.

Test system in another data set: not listed separately
Nature of the data set: animal or person. The following applies: Mus musculus, NMRI, po, read-out: INH.
As to `O[C@@H]1Cc2cc(Cl)ccc2-n2c(nnc2[C@H]2CC[C@H](Oc3ccccn3)CC2)C1`, the inhibition in vivo at 10 mg/kg came out at 84%.

With `FC(F)(F)[C@H]1CC[C@H](c2nnc3n2-c2ccc(Cl)cc2CC2(C3)OCCO2)CC1`, the inhibition in vivo at 10 mg/kg was determined as 41%.

For `CN1Cc2cc(Cl)ccc2-n2c(nnc2[C@H]2CC[C@H](Oc3ccccn3)CC2)C1` [BALOVAPTAN], the inhibition in vivo at 10 mg/kg was found to be 69%.

For `CO[C@H]1Cc2cc(Cl)ccc2-n2c(nnc2[C@H]2CC[C@H](Oc3ccccn3)CC2)C1`, the inhibition in vivo at 10 mg/kg is 71%.

Test system in another data set: not listed separately
As to the kind of experiment: animal or person. Conditions: Mus musculus, NMRI, po, read-out: INH. This is another data set of the same source.
On to `O[C@@H]1Cc2cc(Cl)ccc2-n2c(nnc2[C@H]2CC[C@H](Oc3ccccn3)CC2)C1`, for which the inhibition in vivo at 3 mg/kg was found to be 75%.

`FC(F)(F)[C@H]1CC[C@H](c2nnc3n2-c2ccc(Cl)cc2CC2(C3)OCCO2)CC1`: the inhibition in vivo at 3 mg/kg amounted to 0%.

As for `CN1Cc2cc(Cl)ccc2-n2c(nnc2[C@H]2CC[C@H](Oc3ccccn3)CC2)C1` [BALOVAPTAN], the inhibition in vivo at 3 mg/kg is 7%.

For `CO[C@H]1Cc2cc(Cl)ccc2-n2c(nnc2[C@H]2CC[C@H](Oc3ccccn3)CC2)C1`, the inhibition in vivo at 3 mg/kg was determined as 69%.

These data come from ChEMBL document CHEMBL5532679, “Discovery and Characterization of RGH-122, a Potent, Selective, and Orally Bioavailable V1a Receptor Antagonist” (J Med Chem, 2024).
